These compounds were tested against T1, recombinant human EP-2 receptor (Homo sapiens, UniProt P43116) (assay: In vitro antagonist potency against recombinant human prostaglandin E2 (EP-2) receptor in CHO cells (cAMP, Protocol 1)). Conditions: CHO cells expressing recombinant human EP-2 receptor, stimulated with 5 nM PGE2; cAMP readout; Ki by Cheng-Prusoff equation; read-out: EP2 Ki.
T1 construct: stably transfected with full length cDNA encoding human Prostaglandin E2; expressed in transfected cells
Format: cell-based
Method: 1.0 Measurement of In Vitro Antagonist Potency (IC50) of Compounds Against Recombinant Human Prostaglandin E2 Receptor in CHO Cells
The prostaglandin E2 (EP-2) receptor is Gs coupled and agonism of the receptor by PGE2 results in activation of intracellular adenylate cyclase enzymes that synthesise the second messenger signalling molecule, adenosine 3′,5′-cyclic monophosphate (cAMP). CHO cells expressing the recombinant human EP-2 receptor are stimulated with PGE2 (5 nM) equivalent to approximately […] values to give the maximal cAMP signal. Decreases in cAMP levels following treatment of stimulated recombinant EP-2 cells with potential antagonist compounds were measured and potency (IC50) calculated as follows.
A Chinese hamster ovary (CHO) cell line stably transfected with full length cDNA encoding human Prostaglandin E2 was established using standard molecular biology methods. Test compounds were dissolved in dimethyl sulphoxide (DMSO) at 4 mM. 11 point half log unit increment dilution series of test compound were prepared in DMSO then diluted 1 in 40 in a buffer comprised of phosphate buffered saline (PBS) and 0.05% pluronic F-127 surfactant. Freshly cultured cells at 80-90% confluence were harvested and re-suspended in 90% growth media/10% DMSO. The cells were frozen using a planar freezer and stored in frozen aliquots in cryovials in liquid nitrogen until the day of the experiment. A vial of cells was defrosted in a 37° C. water bath for 2 min, then transferred to 10 ml of Dulbecco's Modified Eagle's Medium (DMEM). The cells were then centrifuged for 5 min at 1000 g and the pellet re-suspended at 1,000,000 cells/ml in DMEM. 5,000 cells (5 ul) were added to 5 ul of the compound dilution series in a 384 well assay plate and pre-incubated for 30 min at 37° C. 5 ul of agonist (15 nM PGE2 in PBS to give 5 nM FAC) was added and plates further incubated for 90 min at 37° C. The relative cAMP concentration in each well was then measured using a β-galactosidase enzyme fragment complementation method purchased in kit form as the Discoverx cAMP II kit from GE Healthcare, UK. […] Sigmoidal curves were fitted to plots of log10 inhibitor concentration vs percent effect. IC50 estimates were determined as the concentration of test compound giving an effect half way between the bottom and top asymptotes of the sigmoidal dose response curve. Each experiment included an IC50 determination for the literature compound as a standard to track assay consistency and allow fair comparison between values obtained in different experiments. The EC50 of PGE2 is used in combination with the ligand concentration in the assay to determine Ki values for antagonist dose responses using the Cheng-Prusoff equation. Consequently an agonist dose response curve is carried out for each experiment using the same incubation as the antagonist plate.

T1 sequence (P43116 whole entry): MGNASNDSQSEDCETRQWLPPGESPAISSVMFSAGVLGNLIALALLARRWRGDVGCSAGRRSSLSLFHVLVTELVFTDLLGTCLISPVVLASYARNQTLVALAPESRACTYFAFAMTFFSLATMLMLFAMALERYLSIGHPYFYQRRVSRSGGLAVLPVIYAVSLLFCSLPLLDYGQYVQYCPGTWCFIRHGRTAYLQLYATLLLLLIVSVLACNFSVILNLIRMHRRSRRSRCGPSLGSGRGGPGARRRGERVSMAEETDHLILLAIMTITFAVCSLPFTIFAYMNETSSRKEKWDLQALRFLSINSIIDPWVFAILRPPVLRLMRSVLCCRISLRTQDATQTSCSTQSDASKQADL

Ki [nM]	Structure (SMILES)
868	COc1ccccc1C(=O)N1CCC(COc2ccc(-c3ccc(C#N)cc3)nc2)(C(=O)O)C1 (single isomer, unassigned) [Example 62]
174	COc1ccccc1C(=O)N1CCC(COc2ccc(-c3ncc(F)cn3)cc2)(C(=O)O)C1 (single isomer, unassigned) [Example 63]
621	COc1ccccc1C(=O)N1CCC(COc2ccc(-c3ncc(F)cn3)cc2)(C(=O)O)C1 (single isomer, unassigned) [Example 64]
175	COc1ccccc1C(=O)N1CCC(COc2ccc(-c3ncc(C#N)cn3)cc2)(C(=O)O)C1 (single isomer, unassigned) [Example 65]
3.3	COc1ccccc1C(=O)N1CCC(COc2ccc(-c3ccc(C#N)cc3)cc2)(C(=O)O)C1 (single isomer, unassigned) [Example 66]
85.7	COc1ccccc1C(=O)N1CCC(COc2ccc(-c3ccc(C#N)cc3)cc2)(C(=O)O)C1 (single isomer, unassigned) [Example 67]
14.6	COc1ccccc1C(=O)N1CCC(COc2ccc(-c3ccc(F)cc3)cc2)(C(=O)O)C1 (single isomer, unassigned) [Example 68]
309	COc1ccccc1C(=O)N1CCC(COc2ccc(-c3ccc(F)cc3)cc2)(C(=O)O)C1 (single isomer, unassigned) [Example 69]
22.7	COc1ccccc1C(=O)N1CCC(COc2ccc(-c3ccc(Cl)cc3)nc2)(C(=O)O)C1 (single isomer, unassigned) [Example 70]
23.9	COc1ccccc1C(=O)N1CCC(COc2ccc(-c3ccc(Cl)cc3)nc2)(C(=O)O)C1 (single isomer, unassigned) [Example 71]
25.5	COc1ccccc1C(=O)N1CCC(COc2ccc(-c3ncc(Cl)cn3)cc2)(C(=O)O)C1 (single isomer, unassigned) [Example 72]
459	COc1ccccc1C(=O)N1CCC(COc2ccc(-c3ncc(Cl)cn3)cc2)(C(=O)O)C1 (single isomer, unassigned) [Example 73]
35.6	COc1ccccc1C(=O)N1CCC(COc2cnc(-c3ccc(Cl)cc3)nc2)(C(=O)O)C1 (single isomer, unassigned) [Example 74]
504	COc1ccccc1C(=O)N1CCC(COc2cnc(-c3ccc(Cl)cc3)nc2)(C(=O)O)C1 (single isomer, unassigned) [Example 75]
158	COc1ccccc1C(=O)N1CCC(COc2ccc(-c3ccc(F)cc3)nc2)(C(=O)O)C1 (single isomer, unassigned) [Example 76]
21.3	O=C(C1CCC1)N1CCC(COc2ccc(-c3ccc(F)cc3)cc2)(C(=O)O)C1 (single isomer, unassigned) [Example 79]
344	O=C(C1CCC1)N1CCC(COc2ccc(-c3ccc(F)cc3)cc2)(C(=O)O)C1 (single isomer, unassigned) [Example 80]
55.5	O=C(C1CCCC1)N1CCC(COc2ccc(-c3ccc(F)cc3)cc2)(C(=O)O)C1 (single isomer, unassigned) [Example 81]
524	O=C(C1CCCC1)N1CCC(COc2ccc(-c3ccc(F)cc3)cc2)(C(=O)O)C1 (single isomer, unassigned) [Example 82]
119	O=C(C1CC1)N1CCC(COc2ccc(-c3ccc(F)cc3)cc2)(C(=O)O)C1 (single isomer, unassigned) [Example 83]
438	O=C(C1CC1)N1CCC(COc2ccc(-c3ccc(F)cc3)cc2)(C(=O)O)C1 (single isomer, unassigned) [Example 84]

Ki [nM]	Structure (SMILES)
5.36	Cc1ccc(OC(=O)N2CCC(COc3ccc(-c4ccc(F)cc4)cc3)(C(=O)O)C2)cc1 (single isomer, unassigned) [Example 86]
225	Cc1ccc(OC(=O)N2CCC(COc3ccc(-c4ccc(F)cc4)cc3)(C(=O)O)C2)cc1 (single isomer, unassigned) [Example 87]
14.9	O=C(Oc1ccc(Cl)cc1)N1CCC(COc2ccc(-c3ccc(F)cc3)cc2)(C(=O)O)C1 (single isomer, unassigned) [Example 88]
252	O=C(Oc1ccc(Cl)cc1)N1CCC(COc2ccc(-c3ccc(F)cc3)cc2)(C(=O)O)C1 (single isomer, unassigned) [Example 89]
4.16	O=C(Oc1ccc(F)cc1)N1CCC(COc2ccc(-c3ccc(F)cc3)cc2)(C(=O)O)C1 (single isomer, unassigned) [Example 90]
37.4	O=C(Oc1ccc(F)cc1)N1CCC(COc2ccc(-c3ccc(F)cc3)cc2)(C(=O)O)C1 (single isomer, unassigned) [Example 91]
7.81	COc1ccc(OC(=O)N2CCC(COc3ccc(-c4ccc(F)cc4)cc3)(C(=O)O)C2)cc1 (single isomer, unassigned) [Example 92]
165	COc1ccc(OC(=O)N2CCC(COc3ccc(-c4ccc(F)cc4)cc3)(C(=O)O)C2)cc1 (single isomer, unassigned) [Example 93]
431	COc1ccccc1OC(=O)N1CCC(COc2ccc(-c3ccc(F)cc3)cc2)(C(=O)O)C1 (single isomer, unassigned) [Example 94]
1.03	COc1ccc(NC(=O)N2CCC(COc3ccc(-c4ccc(F)cc4)cc3)(C(=O)O)C2)cc1 (single isomer, unassigned) [Example 95]
178	COc1ccc(NC(=O)N2CCC(COc3ccc(-c4ccc(F)cc4)cc3)(C(=O)O)C2)cc1 (single isomer, unassigned) [Example 96]
1.89	COc1cccc(NC(=O)N2CCC(COc3ccc(-c4ccc(F)cc4)cc3)(C(=O)O)C2)c1 (single isomer, unassigned) [Example 97]
260	COc1cccc(NC(=O)N2CCC(COc3ccc(-c4ccc(F)cc4)cc3)(C(=O)O)C2)c1 (single isomer, unassigned) [Example 98]
1.99	O=C(Nc1ccccc1Cl)N1CCC(COc2ccc(-c3ccc(F)cc3)cc2)(C(=O)O)C1 (single isomer, unassigned) [Example 99]
518	O=C(Nc1ccccc1Cl)N1CCC(COc2ccc(-c3ccc(F)cc3)cc2)(C(=O)O)C1 (single isomer, unassigned) [Example 100]
3.59	O=C(Nc1ccc(Cl)cc1)N1CCC(COc2ccc(-c3ccc(F)cc3)cc2)(C(=O)O)C1 (single isomer, unassigned) [Example 101]
160	O=C(Nc1ccc(Cl)cc1)N1CCC(COc2ccc(-c3ccc(F)cc3)cc2)(C(=O)O)C1 (single isomer, unassigned) [Example 102]
3.77	O=C(Nc1ccccc1F)N1CCC(COc2ccc(-c3ccc(F)cc3)cc2)(C(=O)O)C1 (single isomer, unassigned) [Example 103]
392	O=C(Nc1ccccc1F)N1CCC(COc2ccc(-c3ccc(F)cc3)cc2)(C(=O)O)C1 (single isomer, unassigned) [Example 104]
24.4	COc1ccccc1C(=O)N1CCC(COc2ccc(-c3ccc(C#N)cn3)cc2)(C(=O)O)C1 (centres unmarked) [Example 3, 3 ((4-(5-cyanopyridin-2-yl)phenoxy)methyl)-1-(2-methoxybenzoyl)pyrrolidine-3-carboxylic acid]

Source: patent US8278343B2, “Pyrrolidines” (Pfizer Inc., priority 2008, dated 2012)
